Measured values reported in patent US8003609B2, “Method for ameliorating pain by modification of NMDA receptors through inhibition of Src” (The Hospital for Sick Children, priority 2004, dated 2011).

Experiments:
[1] = tested on: 2.5% formalin-induced flinching or biting/licking behaviors; assay: formalin test (inflammatory pain); type: in vivo, rat; conditions: 0.1 pmol intravenously 45 minutes before testing; compared to HIV-Tat alone and saline; over an hour
Protocol: Male Sprague-Dawley rats 150-200 g were used for all experiments. Rats were housed in pairs, maintained on a 12/12 hour light/dark cycle, and allowed free access to food and water. All experiments were conducted during 10 am and […]. Peptide Src40-49Tat (TSUDAPI-1; SEQ ID NO:2) or Tat alone (amino acid residues 1-11 of SEQ ID NO:2) was dissolved in sterilized saline. Peptide or saline was injected intravenously at a volume 1 ml/Kg into rat's tail 45 minutes before behavioral testing. Injections were done under brief halothane anesthesia and rats were returned to the cages after injections. The formalin test was performed as previously described (Liu et al. European Journal of Pharmacology 408(2):143-152 2000). Rats were placed in a plexiglass observation chamber for an initial 20 minutes to allow acclimatization to the testing environment. Formalin 2.5% was injected subcutaneously in a volume of […] into the plantar aspect of the hind paw. Following injections, rats were returned to the observation chamber and monitored for flinching behaviors (lifting, shaking and overt flinching with a ripple over the haunch) and biting/licking time. […] Recorded episodes were not corrected, thus values represent about half of the total behaviors expressed. FIGS. 7A-D show the effect of Src40-49Tat (0.1 pmol) on 2.5% formalin induced flinching or biting/licking behaviors. […]

[2] = tested on: NR2B subunit of NMDA receptors; assay: NR2B tyrosine phosphorylation after formalin injection; type: in vivo; conditions: intrathecal administration; 60 minutes post-injection of formalin
Protocol: It can be seen that by 60 minutes post-injection of formalin, tyrosine phosphorylation of the NR2B subunit increases.

[3] = tested on: NMDA receptor NR2B subunits; assay: NR2B tyrosine phosphorylation in spinal cord dorsal horn of cuffed rats; type: in vivo, rat; conditions: intrathecal injection of 0.02 pmol
From the text: This graph represents quantification of band (from western blots) density in three experiments.

[4] = tested on: cuff-induced tactile allodynia; assay: cuff implantation tactile allodynia, paw withdrawal threshold; type: in vivo, mice
From the text: Pain induced by cuff implantation, in a laboratory animal such as a rat or mouse, is an art-accepted model of neuropathic pain. Generally, in cuff implantation a nerve root in the sciatic nerve leading to a hind paw is tied off by surgical implantation of a “cuff”, for example, a polyethylene ring. Over a period of time the nerve degenerates and a neuropathic pain pattern develops. A control is created by subjecting another group of animals to “sham surgery”, a procedure wherein the animals receive the same type of surgery as cuff implantation without the physical implantation of the cuff. After a period of time, the paw is stimulated by a series of filaments or exposure to a small amount of moderate heat. Pain is measured by observation of “paw withdrawal”, in general, if the animal lifts the paw and the time it takes to do so. Typically, an animal not experiencing neuropathic pain will not respond to the stimuli. When testing using filaments, threshold is defined in terms of force. […] This testing method is described in the art; Ren Physiological Behavior 67:711-716 1999 and Guo et al. The Journal of Neuroscience 22(14):6208-6217 2002.
In this experiment, tactile allodynia was induced in a group of mice by cuff implantation and symptoms were observed as early as day 3 post-surgery. Allodynia was allowed to fully develop at 8-10 days post-surgery before the “paw withdrawal” tests were performed. A group of mice received an intrathecal (introduced into the space under the arachnoid membrane of the brain or spinal cord) injection of 0.02 pmol of Src40-49Tat (TSUDAPI-1, SEQ ID NO:2), a second group of mice received an intrathecal injection of 0.02 pmol Scramble Src40-49Tat and a third group of mice received an intrathecal injection of saline. “Scramble Src40-49Tat” refers to TSUDAI-1 (SEQ ID NO:2) having a “scrambled” sequence, i.e. having amino acid residues out of order from the normal. Green represents Src40-49Tat (TSUDAPI-1, SEQ ID NO:2), grey represents Scramble Src40-49Tat and red represents saline. […] The reversal was significant at more than 5 hours post injection, with PWT 6.03±1.45 g (Src40-49Tat) versus 1.7±0.47 g (scrambled Src40-49Tat)(p<0.05).
Another group of mice received an intravenous injection of 10 pmol/g of Src40-49Tat (TSUDAPI-1, SEQ ID NO:2) and a second group of mice received an intravenous injection of saline. Green represents Src40-49Tat (TSUDAPI-1, SEQ ID NO:2) and red represents saline. […] The anti-allodynic effect of the peptide (SEQ ID NO:2) peaked at 2 hours following injection, with PWT 9.28±2.55 g (Src40-49Tat) versus 1.95±0.617 g (saline) (p<0.05).

[5] = tested on: cuff-induced allodynia; assay: cuff-induced allodynia in wild-type and Src kinase null mice, paw withdrawal threshold; type: in vivo; conditions: 100 pmol intravenous injection
From the text: Pain induced by cuff implantation, in a laboratory animal such as a rat or mouse, is an art-accepted model of neuropathic pain. Generally, in cuff implantation a nerve root in the sciatic nerve leading to a hind paw is tied off by surgical implantation of a “cuff”, for example, a polyethylene ring. Over a period of time the nerve degenerates and a neuropathic pain pattern develops. A control is created by subjecting another group of animals to “sham surgery”, a procedure wherein the animals receive the same type of surgery as cuff implantation without the physical implantation of the cuff. After a period of time, the paw is stimulated by a series of filaments or exposure to a small amount of moderate heat. Pain is measured by observation of “paw withdrawal”, in general, if the animal lifts the paw and the time it takes to do so. Typically, an animal not experiencing neuropathic pain will not respond to the stimuli. When testing using filaments, threshold is defined in terms of force. […] This testing method is described in the art; Ren Physiological Behavior 67:711-716 1999 and Guo et al. The Journal of Neuroscience 22(14):6208-6217 2002. Another experiment was performed to compare cuff-induced allodynia in wild-type mice to Src kinase null mice (Src kinase knock-out mice). The PWT was tested in the mice prior to surgery. […]

[6] = tested on: NR2B subunit; assay: nerve-injury induced phosphorylation of NR2B in Src kinase null mice; type: in vivo
[7] = tested on: cultured hippocampal neurons; type: cell-based, rat
Protocol: The dequenching response evoked by bath-applied FCCP (2 μM) in neurons from chloramphenicol-treated or control cultures was assessed. […] Nevertheless, it was noted that the intracellular solution used for all whole-cell recordings contained 2 mM Mg-ATP, so that the level of intracellular ATP was equal in all cells throughout the experiments.

[8] = tested on: ND2; assay: immunoblots of total soluble protein from chloramphenicol-treated hippocampal neurons, ND2; conditions: 50 μg/ml, 48 hours treatment
[9] = tested on: Src association with the NMDAR complex; assay: co-immunoprecipitation of Src with the NMDAR complex in cultured hippocampal neurons; conditions: 50 μg/ml, 48 hours
[10] = intravenous injection of 10 pmol/g

Row | Compound | pain behaviors in the formalin test [1] | formalin-induced increase of NR2B tyrosine phosphorylation [2] | increase in tyrosine phosphorylation of NR2B subunits in spinal cord dorsal horn [3] | PWT ([4]; intrathecal 0.02 pmol, more than 5 hours post injection) [g] | onset of the reversal effect ([4]; intrathecal injection of 0.02 pmol) | reversal of allodynia ([4]; intrathecal injection of 0.02 pmol, 8-10 days post-surgery) | PWT ([4]; intravenous 10 pmol/g, 2 hours following injection) [g] | onset of the reversal effect [4, 10] | reversal of allodynia [4, 10] | time of peak anti-allodynic effect following injection [4, 10] [h] | PWT in null mice ([5]; Src kinase null mice) | PWT after treatment ([5]; wild-type mice, from 0.008±0.0 g before) [g] | phosphorylation of NR2B subunits [6] | functioning of the neurons [7] | level of ND2 in the cultures reduced by [8] | co-immunoprecipitation of Src with the NMDAR complex [9]
1 | Src40-49Tat: SUDAPI-1 combined with the carrier peptide, HIV-Tat (SEQ ID NO:2) (YGRKKRRQRRRKPASADGHR; listed as Homo sapiens) | reduce pain behaviors | significantly reduced | significantly reversed | 6.03 ± 1.45 | as early as one hour | significantly reversed allodynia | 9.28 ± 2.55 | as early as one hour | significantly reversed allodynia | 2 | did not further increase | 0.23 ± 0.05 | did not further decrease |  |  | 
2 | O=C(N[C@H](CO)[C@H](O)c1ccc([N+](=O)[O-])cc1)C(Cl)Cl [chloramphenicol] |  |  |  |  |  |  |  |  |  |  |  |  |  | did not detectably compromise | more than 95% | suppress
